The results in this text go back to paper PMC10377586 (Biomolecules, 2023).

One assay concerns the target T1, human MAO-B (Homo sapiens, UniProt P27338).
T1 construct: purchased Sigma Aldrich M7441
T1 sequence (P27338 1-520): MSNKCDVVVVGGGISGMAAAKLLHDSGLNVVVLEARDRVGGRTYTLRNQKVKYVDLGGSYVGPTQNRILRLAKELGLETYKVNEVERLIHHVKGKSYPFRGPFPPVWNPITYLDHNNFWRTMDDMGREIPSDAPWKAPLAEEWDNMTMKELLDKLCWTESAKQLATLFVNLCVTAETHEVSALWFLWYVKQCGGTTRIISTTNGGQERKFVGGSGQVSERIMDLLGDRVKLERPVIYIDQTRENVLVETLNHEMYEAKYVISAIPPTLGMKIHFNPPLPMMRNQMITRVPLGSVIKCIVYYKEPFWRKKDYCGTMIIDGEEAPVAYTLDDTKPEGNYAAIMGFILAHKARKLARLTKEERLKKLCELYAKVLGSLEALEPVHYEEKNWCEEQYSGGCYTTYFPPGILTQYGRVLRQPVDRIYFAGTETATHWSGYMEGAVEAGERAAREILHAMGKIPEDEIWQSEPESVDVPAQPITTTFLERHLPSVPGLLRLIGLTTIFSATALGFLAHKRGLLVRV
The assay is described as follows: Amplex Red monoamine oxidase assay, MAO-B. The format is biochemical. Conditions: human recombinant MAO-B; read-out: MAO-B IC50 ± SEM.

A further assay has as its target T2, human MAO-A (Homo sapiens, UniProt P21397).
T2 construct: purchased Sigma Aldrich M7316
T2 sequence (P21397 1-527): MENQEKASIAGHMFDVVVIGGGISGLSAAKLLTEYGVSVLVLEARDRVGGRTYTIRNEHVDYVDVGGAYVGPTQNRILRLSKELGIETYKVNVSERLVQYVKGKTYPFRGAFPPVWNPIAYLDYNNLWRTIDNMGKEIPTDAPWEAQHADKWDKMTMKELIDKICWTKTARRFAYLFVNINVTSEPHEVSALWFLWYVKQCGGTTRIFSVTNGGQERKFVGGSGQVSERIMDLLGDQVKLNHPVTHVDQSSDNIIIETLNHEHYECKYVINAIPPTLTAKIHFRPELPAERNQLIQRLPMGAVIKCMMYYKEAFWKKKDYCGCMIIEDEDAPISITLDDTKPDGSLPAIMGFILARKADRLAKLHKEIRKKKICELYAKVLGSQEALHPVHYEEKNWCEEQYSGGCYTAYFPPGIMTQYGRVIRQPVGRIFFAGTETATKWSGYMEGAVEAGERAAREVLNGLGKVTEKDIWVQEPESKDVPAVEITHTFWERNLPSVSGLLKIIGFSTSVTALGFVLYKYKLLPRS
The assay is described as follows: Amplex Red monoamine oxidase assay, MAO-A. The settings on record: for IC50: human recombinant MAO-A, read-out: MAO-A IC50 ± SEM; for inhibition at 1 µM: read-out: MAO-A % Inhibition ± SEM at 1 µM. The format is biochemical. As for the experimental part:
The final compounds were evaluated in vitro for their human MAO-B (hMAO-B) inhibitory potencies, and selected structures were also investigated for human MAO-A (hMAO-A) inhibition.
Inhibition activity of compounds at MAO enzyme isoforms was measured via a fluorometric method using the Amplex Red Monoamine Oxidase Assay (ThermoFisher Scientific, Waltham, MA, USA #A12214) in a 96-well plates. Human recombinant MAO-B and MAO-A enzymes (Sigma Aldrich, St. Louis, MO, USA #M7441 and #M7316) were used. The assays were conducted as previously described.

The target in a further assay is human D2L receptor (Homo sapiens, UniProt P14416). The assay is described as follows: Radioligand binding [3H]-raclopride, HEK293 membranes. Conditions: HEK293 cells, human D2; read-out: hD2 [3H]-Raclopride Ki ± SEM. On the procedure:
Rat brain cortical membranes were used as source of native rat D1 receptor protein, and human D2 receptor was recombinantly expressed in HEK293 cells.
HEK293 cells with stable expression of human D2L receptor were maintained at 37 °C in a humidified atmosphere with 5% CO2 and grown in Dulbecco’s Modifier Eagle Medium containing 10% dialyzed fetal bovine serum and 500 µg/mL G418 sulfate. For membrane preparation, cells were subcultured in 150 cm^2 flasks, grown to 90% confluence, washed twice with prewarmed to 37 °C phosphate buffered saline (PBS), and pelleted by centrifugation (200× g) in PBS containing 0.1 mM EDTA and 1 mM dithiothreitol. Prior to membrane preparation, pellets were stored at −80 °C.
Cell pellets were thawed and homogenized in 10 volumes of assay buffer using an Ultra Turrax tissue homogenizer and centrifuged twice at 35,000× g for 15 min at 4 °C. The incubation buffer consisted of 50 mM Tris-HCl, 1 mM EDTA, 4 mM MgCl2, 120 mM NaCl, 5 mM KCl, 1.5 mM CaCl2, and 0.1% ascorbate. Assay was incubated in a total volume of 200 µL in 96-well microtiter plate for 1 h at 37 °C. The process of equilibration was terminated by rapid filtration through Unifilter plate with a 96-well cell harvester and radioactivity retained on the filter was quantified on a Microbeta plate reader (PerkinElmer). For competition studies, the assay samples contained radioligand 2.5 nM [^3H]-raclopride (PerkinElmer). Non-specific binding was defined with 10 µM of haloperidol. Each compound was tested in triplicate at 7 concentrations (10^−10–10^−4 M). The inhibition constants (Ki) were calculated from the Cheng–Prusoff equation [66]. Results were expressed as means of at least two separate experiments.

The target of another assay is T3, human PDE10A1 (Homo sapiens, UniProt Q9Y233).
T3 construct: purchased BPS Biosciences
T3 sequence (Q9Y233 1-779 isoform Q9Y233-1): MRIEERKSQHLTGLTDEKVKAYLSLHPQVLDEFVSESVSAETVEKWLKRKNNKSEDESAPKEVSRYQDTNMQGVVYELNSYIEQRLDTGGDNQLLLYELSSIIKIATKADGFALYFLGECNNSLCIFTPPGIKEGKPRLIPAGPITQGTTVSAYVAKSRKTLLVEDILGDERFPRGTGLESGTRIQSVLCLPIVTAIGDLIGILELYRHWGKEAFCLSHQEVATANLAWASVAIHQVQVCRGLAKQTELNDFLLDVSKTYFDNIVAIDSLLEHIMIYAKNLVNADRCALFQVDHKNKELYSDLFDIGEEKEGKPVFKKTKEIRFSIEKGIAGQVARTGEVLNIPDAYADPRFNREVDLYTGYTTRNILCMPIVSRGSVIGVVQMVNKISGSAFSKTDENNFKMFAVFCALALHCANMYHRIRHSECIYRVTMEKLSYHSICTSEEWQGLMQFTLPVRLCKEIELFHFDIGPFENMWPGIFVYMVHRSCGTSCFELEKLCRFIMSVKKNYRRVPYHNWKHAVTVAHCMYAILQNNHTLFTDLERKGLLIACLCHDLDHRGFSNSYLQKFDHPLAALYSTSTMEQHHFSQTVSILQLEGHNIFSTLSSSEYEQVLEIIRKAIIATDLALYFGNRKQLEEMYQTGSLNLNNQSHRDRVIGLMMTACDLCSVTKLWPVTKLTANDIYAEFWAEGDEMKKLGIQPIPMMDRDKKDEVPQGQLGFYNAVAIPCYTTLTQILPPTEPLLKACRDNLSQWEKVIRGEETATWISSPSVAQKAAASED
The assay is described as follows: PDElight HTS cAMP phosphodiesterase assay, PDE10A1. The format is biochemical. The settings on record: for IC50: read-out: PDE 10A1 IC50 ± SEM; for inhibition at 10 µM: read-out: PDE 10A1 % Inhibition ± SEM at 10 µM. As for the experimental part: Further biological evaluation of the presented compound library was performed determining inhibitory potencies against selected human PDE isoforms, namely, PDE4 and PDE10 (for results see Table 3).
Tested and reference compounds were dissolved in dimethyl sulfoxide (DMSO) at a concentration of 10 mM and further diluted in assay buffer (10 mM Tris-HCl, 10 mM magnesium chloride and 0.05% Tween-20; pH 7.4). Inhibition of human PDE10A and 4B1 was measured using PDElight HTS cAMP phosphodiesterase assay kit (Lonza, Basel, Switzerland) according to manufacturer’s recommendations. Then, 10 ng of PDE10A and 5 ng of PDE4B1 (BPS Biosciences, San Diego, CA, USA) in appropriate buffer was incubated with reference and tested compound for 20 min. […] Then PDELight AMP Detection Reagent was added and incubated 10 min. All reactions were carried out at 37 °C in 96 white-walled, half-area-well plates (PerkinElmer). Luminescence was measured in a multifunction plate reader (POLARstar Omega, BMG Labtech, Ortenberg, Germany). The percentage of inhibition and IC50s were computed using GraphPad Prism Version 6.0 software.

human D2L receptor, sequence (P14416 whole entry): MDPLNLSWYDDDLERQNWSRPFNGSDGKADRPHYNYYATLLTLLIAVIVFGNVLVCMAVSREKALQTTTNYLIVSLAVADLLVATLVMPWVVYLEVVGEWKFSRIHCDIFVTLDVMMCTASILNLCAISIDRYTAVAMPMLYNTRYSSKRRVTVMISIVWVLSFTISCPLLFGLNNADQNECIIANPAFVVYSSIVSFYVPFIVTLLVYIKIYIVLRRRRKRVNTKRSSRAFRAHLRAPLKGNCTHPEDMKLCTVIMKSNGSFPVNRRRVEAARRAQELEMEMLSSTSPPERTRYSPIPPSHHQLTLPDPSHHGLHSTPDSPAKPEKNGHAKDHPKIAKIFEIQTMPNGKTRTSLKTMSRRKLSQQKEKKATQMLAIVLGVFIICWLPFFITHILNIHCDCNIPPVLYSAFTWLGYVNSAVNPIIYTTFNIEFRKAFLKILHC

The term IC50 denotes the concentration needed to halve the response being measured. A word on the inhibition: it is the change of the read-out against control, counted positive when it falls. Usually Ki stands for a measure of affinity in units of concentration, obtained from inhibition or displacement. Turning to `Cn1c(=O)c2c(nc(NCCc3ccc(O)c(O)c3)n2C)n(C)c1=O` [Compound 11a, 8-((3,4-Dihydroxyphenethyl)amino)-1,3,7-trimethyl-3,7-dihydro-1H-purine-2,6-dione], the IC50 was 50.7 ± 10 nM on human MAO-B, over 1000 nM on human MAO-A and 15100 ± 3100 nM at human PDE10A1. Further, at human MAO-A, the inhibition at 1 µM stood at 44%. Also, on human D2L receptor, the Ki was 25200 ± 5970 nM.
Consider `CCn1c(NCCc2ccc(O)c(O)c2)nc2c1c(=O)n(C)c(=O)n2C` [Compound 11b, 8-((3,4-Dihydroxyphenethyl)amino)-7-ethyl-1,3-dimethyl-3,7-dihydro-1H-purine-2,6-dione], for which the IC50 at human MAO-B was 47.9 ± 8.4 nM; at human MAO-A, 891 ± 63 nM; on human PDE10A1 it was 4630 ± 1250 nM. The Ki on human D2L receptor was found to be 16200 ± 1230 nM.
On to `CCCn1c(NCCc2ccc(O)c(O)c2)nc2c1c(=O)n(C)c(=O)n2C` [Compound 11c, 8-((3,4-Dihydroxyphenethyl)amino)-1,3-dimethyl-7-propyl-3,7-dihydro-1H-purine-2,6-dione], for which the IC50 at human MAO-B was 165 ± 30 nM; on human MAO-A, over 1000 nM; on human PDE10A1 it was 3450 ± 270 nM. The inhibition at 1 µM on human MAO-A amounted to 33%. Besides, the Ki on human D2L receptor stood at 9370 ± 1150 nM.
For `CC(C)n1c(NCCc2ccc(O)c(O)c2)nc2c1c(=O)n(C)c(=O)n2C` [Compound 11d, 8-((3,4-Dihydroxyphenethyl)amino)-7-isopropyl-1,3-dimethyl-3,7-dihydro-1H-purine-2,6-dione] the same measures were 126 ± 49 nM, at least 1000 nM, 2300 ± 640 nM, 47% and 17700 ± 3990 nM.
Consider `CCCCn1c(NCCc2ccc(O)c(O)c2)nc2c1c(=O)n(C)c(=O)n2C` [Compound 11e, 7-Butyl-8-((3,4-dihydroxyphenethyl)amino)-1,3-dimethyl-3,7-dihydro-1H-purine-2,6-dione], for which the IC50 at human MAO-B is 43.8 ± 16.2 nM; on human MAO-A it was over 1000 nM; at human PDE10A1, 3770 ± 1290 nM. Also, the inhibition at 1 µM at human MAO-A was 38%. Further, at human D2L receptor, the Ki is 12700 ± 1860 nM.
Take `CC(C)Cn1c(NCCc2ccc(O)c(O)c2)nc2c1c(=O)n(C)c(=O)n2C` [Compound 11f, 8-((3,4-Dihydroxyphenethyl)amino)-7-isobutyl-1,3-dimethyl-3,7-dihydro-1H-purine-2,6-dione]: the IC50 on human MAO-B is 205 ± 23 nM. Besides, at human MAO-A, the IC50 is over 1000 nM and the inhibition at 1 µM worked out at 42%. The Ki on human D2L receptor came out at 27600 ± 4000 nM. Further, the inhibition at 10 µM at human PDE10A1 turned out to be 59%.
As for `CCC(C)n1c(NCCc2ccc(O)c(O)c2)nc2c1c(=O)n(C)c(=O)n2C` (stereo not shown) [Compound 11g, 7-(Sec-butyl)-8-((3,4-dihydroxyphenethyl)amino)-1,3-dimethyl-3,7-dihydro-1H-purine-2,6-dione], the IC50 on human MAO-B was 197 ± 57 nM; at human MAO-A it was over 1000 nM; on human PDE10A1 it was 10200 ± 900 nM. On human MAO-A, the inhibition at 1 µM was 44%. Moreover, at human D2L receptor, the Ki amounted to 39200 ± 8430 nM.
With `CCCCCn1c(NCCc2ccc(O)c(O)c2)nc2c1c(=O)n(C)c(=O)n2C` [Compound 11h, 8-((3,4-Dihydroxyphenethyl)amino)-1,3-dimethyl-7-pentyl-3,7-dihydro-1H-purine-2,6-dione], the IC50 at human MAO-B is 58.3 ± 6.2 nM; on human MAO-A it was 692 ± 7 nM; at human PDE10A1 it was at least 10000 nM. Also, the Ki on human D2L receptor amounted to 8260 ± 480 nM. Moreover, the inhibition at 10 µM at human PDE10A1 came out at 51%.
For `CCCCCCn1c(NCCc2ccc(O)c(O)c2)nc2c1c(=O)n(C)c(=O)n2C` [Compound 11i, 8-((3,4-Dihydroxyphenethyl)amino)-7-hexyl-1,3-dimethyl-3,7-dihydro-1H-purine-2,6-dione], the IC50 on human MAO-B was 76.4 ± 0.7 nM; at human MAO-A, 246 ± 72 nM; at human PDE10A1, over 10000 nM. In addition, the Ki at human D2L receptor was found to be 6680 ± 950 nM. In addition, the inhibition at 10 µM at human PDE10A1 came to 14%.
Regarding `Cn1c(=O)c2c(nc(NCCc3ccc(O)c(O)c3)n2Cc2ccccc2)n(C)c1=O` [Compound 11j, 7-Benzyl-8-((3,4-dihydroxyphenethyl)amino)-1,3-dimethyl-3,7-dihydro-1H-purine-2,6-dione], the half-maximal inhibitory concentration (IC50) is 45.6 ± 12.9 nM at human MAO-B, 576 ± 68 nM on human MAO-A and at least 10000 nM at human PDE10A1. In addition, the Ki at human D2L receptor is 9100 ± 1650 nM. Moreover, the inhibition at 10 µM at human PDE10A1 amounted to 36%.
Take `Cn1c(=O)c2c(nc(NCCc3ccc(O)c(O)c3)n2CCc2ccccc2)n(C)c1=O` [Compound 11k, 8-((3,4-Dihydroxyphenethyl)amino)-1,3-dimethyl-7-phenethyl-3,7-dihydro-1H-purine-2,6-dione]: the IC50 was determined as 73.5 ± 7.5 nM on human MAO-B, 256 ± 93 nM on human MAO-A and 2410 ± 70 nM on human PDE10A1. Further, the Ki on human D2L receptor was found to be 9950 ± 1950 nM.
Consider `Cn1c(=O)c2c(nc(NCCc3ccc(O)c(O)c3)n2CCOc2ccccc2)n(C)c1=O` [Compound 11l, 8-((3,4-Dihydroxyphenethyl)amino)-1,3-dimethyl-7-(2-phenoxyethyl)-3,7-dihydro-1H-purine-2,6-dione], for which, at human MAO-B, the IC50 came out at 53.5 ± 18.2 nM. Further, at human MAO-A, the IC50 was over 1000 nM and the inhibition at 1 µM was determined as 41%. Further, the Ki on human D2L receptor amounted to 8870 ± 940 nM. Besides, at human PDE10A1, the inhibition at 10 µM came out at 17% and the IC50 was over 10000 nM.
Take `CCCn1c(=O)c2c(nc(NCCc3ccc(O)c(O)c3)n2CCC)n(CCC)c1=O` [Compound 12, 8-((3,4-Dihydroxyphenethyl)amino)-1,3,7-tripropyl-3,7-dihydro-1H-purine-2,6-dione]: the figures for the IC50 at human MAO-B, on human MAO-A and at human PDE10A1 were 105 ± 23 nM, about 1000 nM and 2730 ± 30 nM, respectively. The inhibition at 1 µM on human MAO-A was 57%. Besides, the Ki on human D2L receptor is 13300 ± 2200 nM.
